Test results from ChEMBL document CHEMBL3507680, “University of Dundee, Gates Library screen for HepG2 cell viability”.

Experiment: Human HepG2 cell viability assay in 384 well format
Format: toxicity, cell-based
Parameters: dose 125 nL, time 70.5 hour; concentration not given beside the values
Conditions: HepG2 cells, read-out: Inhibition

Row | Compound | cytotoxicity at 70.5 h
1 | c1ccc(-c2nnc([C@H]3CCN(C4CCOCC4)C3)o2)cc1 | -0.562%
2 | FC(F)(F)c1ccccc1CN1CCOC[C@H](Oc2cccnc2)C1 | 1.03%
3 | CC(=O)c1ccc(NC(=O)C(C)Cn2cc(Br)cn2)cc1 (stereo not given) | -5.47%
4 | CNc1snc(C)c1C(=O)NC(C)CC(=O)c1cccs1 (stereo not given) | -14.5%
5 | CO[C@@H]1CCN(Cc2ccoc2)[C@@H]2CN(Cc3ccco3)C[C@@H]21 | -5.98%
6 | COc1ncccc1C(=O)N1CCC2(CC1)CC(OC)CO2 (stereo not given) | -6.77%
7 | O=C(O)C1CCN(c2nc3c(-c4ccccc4F)csc3c(=O)[nH]2)CC1 | -0.14%
8 | CN(C)S(=O)(=O)N1CCCC(c2cccc(Cc3ccc(F)cc3)n2)C1 (stereo not given) | 3.53%
9 | CNC(=O)[C@@H](CC(C)C)N1CCC[C@H]1C(=O)N(C)Cc1ccccc1 | -7.93%
10 | CC(=O)Nc1ccc(Cl)c(C(=O)N(C)Cc2nc(C)c[nH]2)c1 | -8.28%
11 | CC(C)c1cc(C(=O)NCC(O)C2CCOCC2)nn1C(C)(C)C (stereo not given) | 1.71%
12 | CC(C(=O)N1CCn2cncc2C1)N1C[C@@H](C)O[C@@H](C)C1 (stereo not given in full) | 0.983%
13 | CC(=O)N(C)CC(=O)NC(CC(C)C)c1cccs1 (stereo not given) | -5.7%
14 | CO[C@H]1CNC[C@@H]1NC(=O)CCc1nc(-c2ccccc2)no1 | -0.167%
15 | CC(C)C(C)N(C(=O)c1cc2c([nH]c1=O)CCCC2=O)C1CC1 (stereo not given) | -7.9%
16 | CC(C)c1cc(NC(=O)CNC2CCc3ncnn3C2)on1 (stereo not given) | 11.4%
17 | Cn1cc(CN2CCc3ccc(=O)n(CC4CC4)c3CC2)cn1 | 4.08%
18 | O=C(NCCc1nnc2n1CCC2)N1CCC2(CCCCC2)C1 | -0.937%
19 | COCc1ncc(CN2CCC3(CCNC(=O)CC3)CC2)cn1 | -5.72%
20 | CCCc1cc(C(=O)NCCN2CCCS2(=O)=O)[nH]n1 | -7.48%
21 | CCn1cc2c(n1)CN(Cc1nccs1)CC2COCC1CC1 (stereo not given) | -11%
22 | O=C(CCn1ccnc1)N1CCC(c2nnc(-c3ccccn3)o2)CC1 | -3.21%
23 | CNC(=O)N1CCN(C(=O)N(C)C)CC2(CC(=O)N(C)C2)C1 (stereo not given) | -20%
24 | CN(C)c1cc(C(=O)NCc2cccnc2-n2cncn2)ccn1 | -16.1%
25 | Cc1ccc(N2CCc3ncc(CNc4ccccn4)n3CC2)nn1 | -1.74%
26 | CCN1Cc2cc(F)ccc2N(CC(O)C(F)(F)F)CCC1=O (stereo not given) | -8.41%
27 | Cc1ccc(N2CC[C@@H]3[C@@H](CO[C@H]3CNC(=O)c3ccco3)C2)nn1 | -1.79%

Row | Compound | cytotoxicity at 70.5 h
28 | CS(=O)(=O)N1C[C@@H](O)[C@H](N2CCN(c3ccccc3)CC2)C1 | 22.6%
29 | O=C(COC[C@H]1CC[C@H]2[C@H](CCN2c2ccccn2)O1)N1CCCC1 | -111%
30 | Cc1ccoc1C(=O)N1CCOC2(CCCC2)C1 | -2.84%
31 | Cc1cnn(C(C)C2CC2)c1NC(=O)c1cnccn1 (stereo not given) | -11.2%
32 | O=C(NCCc1nnc2n1CCC2)NCC1(c2ccccc2F)CC1 | -6.03%
33 | CN(C)C(CNCc1nc(-c2ccsc2)no1)c1ccsc1 (stereo not given) | 4.31%
34 | CN1CCN(Cc2ccccc2CNC(=O)c2ccc(Br)cc2)CC1 | -7.15%
35 | COCc1csc(NC(=O)NCc2ccc(C)s2)n1 | 1.09%
36 | Cc1cccc(CN2C[C@@H](C)[C@@]3(CCN(CC(=O)N(C)C)C3=O)C2)c1 | -10%
37 | OCCOCc1ncn2c1CN(Cc1cccs1)CCC2 | 0.851%
38 | c1cnc(N2CCN(Cn3nccc3-c3cccnc3)CC2)nc1 | 5.37%
39 | CC(C)c1noc(C2CCN(C(=O)C3CCCO3)CC2)n1 (stereo not given) | -11.9%
40 | O=C(CSc1ccncc1)NC1CC(=O)N(CCc2ccccc2)C1 (stereo not given) | -8.43%
41 | Cc1nc2c(c(NC3CC3)n1)CCN(C(=O)CCO)CC2 | -4.49%
42 | CC1(C)CN(C(=O)Nc2ccc(Cn3cccn3)cc2)CCO1 | -3.49%
43 | CCOC[C@@]12CCC[C@@H]1CN(C(=O)COc1ccccc1OC)C2 | -8.07%
44 | O=C(c1ccnn1COc1ccc(Cl)cc1)N1CCSCC1 | -11%
45 | CCC1=N[C@@]2(CC[C@@H]3CN(C(=O)NC(C)C)C[C@@H]32)C(=O)N1C | -1.59%
46 | Cc1ccc(C)n1-c1ccsc1C(=O)NCC(=O)N1CCCC1 | -1.31%
47 | CN1CCC(N(C)C(=O)CSc2ccc(F)c(F)c2)C1=O (stereo not given) | -2.06%
48 | CN(Cc1ccc(-n2cncn2)cc1)Cc1ncc[nH]1 | -0.834%
49 | c1cnc(NC2COC3(CCN(Cc4nccs4)CC3)C2)cn1 (stereo not given) | -8.19%
50 | CCn1c(C)cc(C(=O)Nc2ccccc2CN(C)C(C)=O)c1C | -9.11%
51 | COc1c(C)cnc(CN2CCn3c(nnc3C3CC3)C2)c1C | -2.97%
52 | CC(C)NS(=O)(=O)c1cc(C(=O)O)cc(-c2ccc(CN(C)C)cc2)c1 | 16.9%
53 | COc1ncccc1CNC(=O)N(Cc1ccccc1F)C1CC1 | -0.0541%
54 | Cc1cc(C)n(CC2CCCN2Cc2cccc(C#N)c2)n1 (stereo not given) | -3.89%

Row | Compound | cytotoxicity at 70.5 h
55 | Cc1nc(C)c2c(n1)CCN(C(=O)C1(C#N)CC1)CC2 | -1.89%
56 | CCCOC1CCCN(C(=O)c2cnc(-c3csc(C)n3)nc2O)C1 (stereo not given) | -6.67%
57 | CNc1cncc(C2CCCN2C(=O)c2ccc3nc(C)[nH]c3c2)n1 (stereo not given) | -3.29%
58 | COC(=O)C1CCCN1Cc1ccco1 (stereo not given) | -8.41%
59 | c1ccc(C2CCN(c3ncnc4c3CCNC4)CC2)cc1 | -4.79%
60 | Cc1cc(C(=O)N2CCCC(c3nccn3Cc3ccncc3)C2)no1 (stereo not given) | -12.9%
61 | CC(C)c1cc2c(O)nc(CSCC(=O)O)nc2s1 | -14.7%
62 | Cc1nc(-c2ccc(Cl)s2)sc1C(=O)NCCS(N)(=O)=O | -13.2%
63 | O=C(COc1cccc(Br)c1)N1CCOCC1c1ncon1 (stereo not given) | -3.27%
64 | O=S(=O)(Cc1ccccc1)NCc1nnc2n1CCC2 | -22.1%
65 | Cc1nnc(N2C[C@H]3OCC[C@H]3[C@H](C(=O)NCC3CC3)C2)s1 | 1.29%
66 | COc1ccc(Cl)cc1C(=O)N(C)Cc1cc(C)on1 | -3.26%
67 | Cc1nc([C@@H]2C[C@H]3CN(Cc4ccc5c(c4)OCO5)C[C@H]3O2)no1 | -10.1%
68 | Cc1ncc(CN2CCCC(O)(c3ccc(F)cc3)CC2)n1C (stereo not given) | -5.42%
69 | CC(=O)NCCNC(=O)c1cc(Br)c2c(c1)OCCO2 | -11.6%
70 | Cc1noc([C@@]23CCO[C@@H]2CCN(C(=O)c2cc(C)c(C)s2)C3)n1 | -0.38%
71 | Cn1cc(NC(=O)c2ccccn2)cc(Cl)c1=O | -7.7%
72 | COCCn1cc(C(=O)N2CCCC2c2cc(C)no2)ccc1=O (stereo not given) | -11.6%
73 | O=C(NC1CC1)N1CCc2ccc(=O)n(Cc3cccnc3)c2CC1 | 6.33%
74 | CCC(CNC(=O)c1ccco1)N1CCc2ccccc2C1 (stereo not given) | -12.8%
75 | CC(C)c1nccn1C1CCCN(C(=O)c2ccc3nncn3c2)C1 (stereo not given) | 13%
76 | CCC(CC)NCC(C)Oc1cccnc1 (stereo not given) | -2.86%
77 | Cc1cnn(Cc2cc(F)ccc2F)c1NC(=O)C1CCOCC1 | 1.07%
78 | CN(Cc1ccccc1)C(=O)CN1CCCC1c1cnn(C)c1 (stereo not given) | -10.2%
79 | CC(=O)N1CC(=O)N(c2cnn(C)c2)CC12CCN(Cc1cccs1)C2 (stereo not given) | -9.86%
80 | CCc1ccc(C(O)CN2CCN(c3cccc(OC)c3)CC2)cc1 (stereo not given) | -29.4%
